Source: patent US6890513B2, “Metal-carborane complexes for radioimaging and radiotherapy and methods for their preparation” (McMaster University, priority 2001, dated 2005)

Test: cysteine challenge experiment (stability of Re and Tc carborane complexes)
Format: physicochemical
Details: thousand fold excess of cysteine, 1:1 (v/v) phosphate buffer (pH=7.4)-ethanol, 37° C., over 24 hours
Description: The stability of the Re and Tc carborane complexes were evaluated using a cysteine challenge experiment.^21 Compound 1, for example, was incubated with a thousand fold excess of cysteine in a 1:1 (v/v) phosphate buffer (pH=7.4)-ethanol mixture at 37° C. over 24 hours.

Substance: [NEt4][Re(CO)3(η^5-7,8-C2B9H11)] [Compound 1]
- stability (decomposition) in cysteine challenge by HPLC, FTIR and electrospray mass spectrometry: no signs of decomposition
